In patent US6548448B2, “Delivery systems for cyclopropenes” (Rohm and Haas Company, priority 2001, dated 2003):

Key:
Type in all cases: physicochemical
[1] = 1-MCP release from polyvinyl alcohol (PVA) film containing 1-MCP/α-cyclodextrin complex in humid chamber; conditions: for Concentration of 1-MCP: PVA film with 0.05 g complex, 36 liter high humidity chamber
Experimental: (§1) 1-MCP/α-cyclodextrin complex powder (0.05 grams) was heat sealed into a 2×3.5 inch piece of 1.5 mil thick M 7061 polyvinyl alcohol (PVA) film (Chris Craft Corp.) using a Sealmaster 420 (Audion Elektro) heat sealer. This film was placed into a 36 liter volume high humidity chamber. […] The 1-MCP release characteristics of the film versus time were determined by periodically analyzing the atmosphere in the chamber for 1-MCP. The analysis method was gas chromatography using a flame ionization detector.

[2] = 1-MCP release from high density polyethylene (HDPE) film exposed to 1-MCP gas, sealed jar; conditions: for Concentration of 1-MCP: HDPE film exposed to 2206 ppm 1-MCP for 2 hours, sealed quart jar
Experimental: (§2) High density polyethylene (HDPE) film of 2 mil thickness measuring 4.5×2.75 inches was exposed to 2206 ppm 1-MCP (vol/vol) in the atmosphere of a sealed quart jar for 2 hours. The film was removed, allowed to stand in air for 5 minutes and then sealed in a fresh quart jar equipped with a sampling septum. The 1-MCP release characteristics of the film versus time were determined by periodically analyzing the atmosphere in the jar for 1-MCP. The analysis method was gas chromatography using a flame ionization detector.

[3] = 1-MCP release from wax paper exposed to 1-MCP gas, sealed jar; conditions: for Concentration of 1-MCP: wax paper exposed to 2206 ppm 1-MCP for 5 hours, sealed quart jar
Experimental: as §2, with “Wax paper measuring” for “High density polyethylene (HDPE) film of 2 mil thickness measuring”, “for 5” for “for 2”

[4] = 1-MCP release from low density polyethylene (LDPE) film containing 1-MCP/α-cyclodextrin complex in humid chamber; conditions: for Concentration of 1-MCP: LDPE film with 0.05 g complex, 36 liter high humidity chamber
Experimental: as §1, with “1-MCP/α-CD” for “1-MCP/α-cyclodextrin”, “5.5×12” for “2×3.5”, “2.0” for “1.5”, “low density polyethylene (LDPE) film.” for “M 7061 polyvinyl alcohol (PVA) film (Chris Craft Corp.) using a Sealmaster 420 (Audion Elektro) heat sealer.”

[5] = 1-MCP release from waxy, cast (Parafilm M) film containing 1-MCP/α-cyclodextrin complex in humid chamber; conditions: for Concentration of 1-MCP: waxy cast Parafilm M film with 0.5 g complex, 36 liter high humidity chamber
Experimental: Parafilm® “M” film (2.0 grams, American National Can Corp.) was dissolved/dispersed in 12 grams of hexane. 1-MCP/α-cyclodextrin complex powder (0.5 grams) was mixed into this suspension and then the whole mixture was poured into a 3.5 inch diameter glass crystallizing dish to dry. The dish was placed in a 50° C. oven for 5 hrs. to dry and the resulting cast film was removed from the dish. This film was placed into a 36 liter volume high humidity chamber being careful not to allow the film to contact any water directly. The 1-MCP release characteristics of the film versus time were determined by periodically analyzing the atmosphere in the chamber for 1-MCP. The analysis method was gas chromatography using a flame ionization detector.

Compound: CC1=CC1 [Compound 1-MCP, 1-methylcyclopropene]
- Concentration of 1-MCP ([1]; 0 min.): 0.0 ppm
- Concentration of 1-MCP ([1]; 5 min.): 0.9 ppm
- Concentration of 1-MCP ([1]; 25 min.): 2.2 ppm
- Concentration of 1-MCP ([1]; 45 min.): 3.2 ppm
- Concentration of 1-MCP ([1]; 90 min.): 6.0 ppm
- Concentration of 1-MCP ([1]; 20 hr.): 17.0 ppm
- 1-MCP release from the film (in words) ([1]; PVA film, high humidity chamber, no direct water contact): released from the PVA film just by the water provided by humidity
- Concentration of 1-MCP ([2]; 0 sec.): 0.0 ppm
- Concentration of 1-MCP ([2]; 0.5 min.): 3.0 ppm
- Concentration of 1-MCP ([2]; 5 min.): 8.0 ppm
- Concentration of 1-MCP ([2]; 15 min.): 9.6 ppm
- Concentration of 1-MCP ([2]; 60 min.): 11.0 ppm
- 1-MCP release from the film (in words) ([2]; HDPE film, sealed jar): significant release
- Concentration of 1-MCP ([3]; 0 min.): 0.0 ppm
- Concentration of 1-MCP ([3]; 0.5 min.): 0.3 ppm
- Concentration of 1-MCP ([3]; 5 min.): 0.9 ppm
- Concentration of 1-MCP ([3]; 15 min.): 0.9 ppm
- Concentration of 1-MCP ([3]; 60 min.): 0.9 ppm
- 1-MCP release from the film (in words) ([3]; wax paper, sealed jar): less release than Example 4, but still a significant amount
- Concentration of 1-MCP ([4]; 0 min.): 0.0 ppm
- Concentration of 1-MCP ([4]; 5 min.): 2.0 ppm
- Concentration of 1-MCP ([4]; 20 min.): 7.7 ppm
- Concentration of 1-MCP ([4]; 40 min.): 14.5 ppm
- Concentration of 1-MCP ([4]; 60 min.): 19.0 ppm
- 1-MCP release from the film (in words) ([4]; LDPE film, high humidity chamber, no direct water contact): released from the LDPE film just by the water provided by humidity
- Concentration of 1-MCP ([5]; 0 min.): 0.0 ppm
- Concentration of 1-MCP ([5]; 5 min.): 0.02 ppm
- Concentration of 1-MCP ([5]; 20 min.): 0.1 ppm
- Concentration of 1-MCP ([5]; 35 min.): 0.3 ppm
- Concentration of 1-MCP ([5]; 60 min.): 0.8 ppm
- Concentration of 1-MCP ([5]; 90 min.): 1.4 ppm
- 1-MCP release from the film (in words) ([5]; waxy cast film, high humidity chamber, no direct water contact): released from the LDPE film just by the water provided by humidity
